Experimental data published in patent US11667643B2, “RIP1K inhibitors” (priority 2020, dated 2023).
Where two headings read alike, the source gives them in different places.

Assays:
[1] = biological target: RIPK1 (Homo sapiens (Human), UniProt Q13546); experiment: biochemical; assay type: biochemical
Method: In this example, compounds of the disclosure were evaluated using a biochemical assay using the ADP-Glo™ technology.
ADP-Glo™ (Promega, Madison, Wis., USA) reagents were thawed at ambient temperature. Kinase Detection Reagent was prepared by mixing kinase detection buffer with the lyophilized kinase detection substrate.
A […] stock volume of 5× Reaction Kinase Buffer was made by mixing 1000 μl of 1M MgCl2, 500 μl of 1M Tris-HCL pH7.4, 0.5 mg/ml (25 mg) of BSA, and 3475 μl of distilled H2O. A 3 ml 2× working stock volume of Reaction Kinase Buffer was made containing a final concentration of 100 μM DTT and 4 mM MnCl2.
Components of RIPK1 enzyme (Rigel Pharmaceuticals, South San Francisco, Calif., USA) were thawed on ice. Diluted RIPK1 was prepared in 1× Kinase Reaction Buffer (diluted from 2× buffer) to 31 ng/well.
1.0 ul of diluted compound was added to a 384 well plate in duplicate. […] The final reaction volume was 5.0 μl. The plate was quickly centrifuged and the reaction was incubated at 30° C. for 30 minutes. Adding 5 μl of ADP-Glo™ terminated the reaction. The plate was quickly centrifuged and the reaction was incubated at room temperature for 40 minutes. Kinase Detection Reagent was then added and incubated at room temperature for 30 minutes. The relative light unit (RLU) of kinase reaction was determined by luminescent (Luminescence 0.1 s) using a Wallac Victor2 Luminometer (PerkinElmer, Waltham, Mass., USA).

[2] = test system: L929 cells; experiment: L929 cell necroptosis assay (TNFa + zVAD, CellTiter-Glo recovery), functional murine RIP1 assay; assay type: cell-based; conditions: Mus musculus, L929, 18 h, read-out: L929-CTG-recovery, L929, TNFa + zVAD (IC50), L929 cells, zVAD-fmk, TNFa 2 ng/mL, 18 hours, CellTiter-Glo
Method: (§1) In this example, U937 and L929 cells were exposed to compounds of the present disclosure and a cell necroptosis assay was conducted to evaluate compound activity in functional human RIP1 and murine RIP1 assays.
(§2) U937 and L929 cells were obtained from the American Type Culture Collection (Manassa, Va., USA). Both cells were maintained in logarithmic growth phase in complete RPMI 1640 media (Sigma, ST Louis, Mo., USA) supplemented with 10% fetal bovine serum (Sigma, ST Louis, Mo., USA) at 37° C. with 5% CO2. For necroptosis assay, L929 cells were plated for 18 h in 100 μL/well medium at 10K cells/well in Costar 96-well black clear-bottom plates (Fisher Scientific, Hampton, N.H., USA); U937 cells were plated on the day of the assay in 50 μL/well medium containing 60 uM zVAD-fmk (Lonza, Basel, Switzerland) at 50K cells/well. Medium from L929 cells were removed from the 96-well plates and replaced with 50 μL/well new medium containing 40 uM zVAD-fmk. Each compound of the present disclosure evaluated in this example was serially diluted in DMSO from 2.5 mM in 4-fold dilutions, and then diluted 1:125 in complete medium. 50 μL/well 2× of the compound was then added to the cells in the plates. The cells were pre-incubated with the compound for 1 hour at 37° C. with 5% CO2 and before addition of 10 μL/well 11×TNFa (Peprotech, Rocky Hill, N.J., USA) to give a final concentration of 2 ng/mL for TNFa. The relative amount of necroptosis cells was determined by luminescent using a Wallac Victor2 Luminometer (PerkinElmer, Waltham, Mass., USA) and a CellTiter-Glo® Luminescent Cell Viability Reagent Assay (Promega, Madison, Wis., USA) added per manufacturer instructions after 18 hours of TNFa stimulation at 37° C. with 5% CO2. This example establishes that embodiments of the compounds described herein have unexpectedly potent activity against human RIP1 and murine RIP1, which allows their assessment in in vivo mouse models of disease.

[3] = test system: U937 cells; experiment: U937 cell necroptosis assay (TNFa + zVAD, CellTiter-Glo recovery), functional human RIP1 assay; assay type: cell-based; conditions: Homo sapiens, U-937, 18 h, read-out: U937 Zvad TNF CTG Recovery, U937, TNFa + zVAD (IC50), U937 cells, zVAD-fmk, TNFa 2 ng/mL, 18 hours, CellTiter-Glo
Method: as §1, §2

[4] = RIPK1 enzyme 31 ng/well, 30° C. for 30 minutes, luminescence, read-out: RIPK1 ADP-Glo Kinase (IC50)

Chain of RIPK1 (Q13546 whole entry, species assumed): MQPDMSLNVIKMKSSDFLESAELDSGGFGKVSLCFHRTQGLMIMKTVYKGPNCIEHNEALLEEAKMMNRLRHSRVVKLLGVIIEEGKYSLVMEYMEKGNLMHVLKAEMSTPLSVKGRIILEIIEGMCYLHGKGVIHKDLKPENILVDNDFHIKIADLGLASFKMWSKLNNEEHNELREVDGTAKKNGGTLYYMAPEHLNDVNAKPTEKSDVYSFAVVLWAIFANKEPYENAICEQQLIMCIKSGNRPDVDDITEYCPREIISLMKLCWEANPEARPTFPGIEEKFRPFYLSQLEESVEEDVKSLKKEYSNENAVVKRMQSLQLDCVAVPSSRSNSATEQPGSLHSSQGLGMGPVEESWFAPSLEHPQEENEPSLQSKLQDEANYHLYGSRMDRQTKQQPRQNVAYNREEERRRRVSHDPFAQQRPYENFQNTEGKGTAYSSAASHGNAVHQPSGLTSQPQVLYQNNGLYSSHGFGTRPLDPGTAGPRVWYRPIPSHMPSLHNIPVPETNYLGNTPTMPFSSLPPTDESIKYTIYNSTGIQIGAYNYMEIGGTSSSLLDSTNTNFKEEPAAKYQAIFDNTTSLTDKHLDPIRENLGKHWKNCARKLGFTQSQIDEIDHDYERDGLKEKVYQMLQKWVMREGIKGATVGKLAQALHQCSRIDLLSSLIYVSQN

Row | SMILES | IC50 [1, 4] [µM] | IC50 [2] [µM] | IC50 [3] [µM] | IC50 [1] [µM]
1 | O=C(N[C@H]1COc2ccccc2-n2nnnc21)c1ncn(Cc2ccccc2F)n1 [Compound I-21, (R)—N-(4,5-Dihydrobenzo[b]tetrazolo[1,5-d][1,4]oxazepin-4-yl)-1-(2-fluorobenzyl)-1H-1,2,4-triazole-3-carboxamide] | 0.0567 | 160 | 0.0625 | 
2 | O=C(N[C@H]1COc2ccccc2-n2c1noc2=O)c1ncn(Cc2c(Cl)cccc2Cl)n1 [Compound I-42, 1-(2,6-Dichlorobenzyl)-N-((4R)-1-oxo-4,5-dihydro-1H-benzo[&][1,2,4]oxadiazolo[4,3-d][1,4]oxazepin-4-yl)-1H-1,2,4-triazole-3-carboxamide] | 0.0263 | 10000 | 0.041 | 
3 | O=C(NC1CCc2ccccc2-n2c1noc2=O)c1cc(Oc2ccccc2)ccn1 (racemic) [Compound I-52, (±)-N-(1-Oxo-5,6-dihydro-1H,4H-benzo[f][1,2,4]oxadiazolo[4,3-a]azepin-4-yl)-4-phenoxypicolinamide] | 0.0325 | 20.8 | 0.0647 | 
4 | O=C(N[C@H]1CSc2ccccc2-n2nnnc21)c1n[nH]c(Cc2ccc(F)cc2)n1 [Compound I-30, (R)—N-(4,5-Dihydrobenzo[&]tetrazolo[1,5-d][1,4]thiazepin-4-yl)-5-(4-fluorobenzyl)-1H-1,2,4-triazole-3-carboxamide] | 0.0186 | 10000 | 0.0679 | 
5 | O=C(NC1COc2ccccc2-n2cccc21)c1ncn(Cc2c(Cl)cccc2Cl)n1 (racemic) [Compound I-27, (±)-1-(2,6-Dichlorobenzyl)-N-(6,7-dihydrobenzo[b]pyrrolo[1,2-d][1,4]oxazepin-7-yl)-1H-1,2,4-triazole-3-carboxamide] | 0.0684 | 5.55 | 0.034 | 
6 | O=C(NC1COc2ccccc2-n2cccc21)c1n[nH]c(Cc2ccccc2)n1 (racemic) [Compound I-34, (±)-5-Benzyl-N-(6,7-dihydrobenzo[b]pyrrolo[1,2-d][1,4]oxazepin-7-yl)-1H-1,2,4-triazole-3-carboxamide] | 0.139 | 10000 | 1.54 | 
7 | O=C(NC1CCc2ccc(CN3CCN(c4ccncc4)CC3)cc2-n2ccnc21)c1n[nH]c(Cc2ccccc2)n1 (racemic) [Compound I-39, (±)-5-Benzyl-N-(9-((4-(pyridin-4-yl)piperazin-1-yl)methyl)-5,6-dihydro-4H-benzo[f]imidazo[1,2-a]azepin-4-yl)-1H-1,2,4-triazole-3-carboxamide] | 1.46 | 50.9 | 1.38 | 
8 | O=C(NC1CCc2ccc(N3CCC4(CCOCC4)CC3)cc2-n2ccnc21)c1cc(Oc2ccccc2)ccn1 (racemic) [Compound I-62, (±)-N-(9-(3-Oxa-9-azaspiro[5.5]undecan-9-yl)-5,6-dihydro-4H-benzo[f]imidazo[1,2-a]azepin-4-yl)-4-phenoxypicolinamide] | 0.0695 | 10.1 | 0.0301 | 
9 | O=C(N[C@H]1CSc2ccccc2-n2c1noc2=O)c1cc(Cc2ccccc2)on1 [Compound I-28, 5-Benzyl-N-((4R)-1-oxo-4,5-dihydro-1H-benzo[b][1,2,4]oxadiazolo[4,3-d][1,4]thiazepin-4-yl)isoxazole-3-carboxamide] | 0.0679 | 10.7 | 0.0165 | 
10 | O=C(NC1CCc2ccccc2-n2c1n[nH]c2=O)c1ncn(Cc2c(Cl)cccc2Cl)n1 (racemic) [Compound I-36, (±)-1-(2,6-Dichlorobenzyl)-N-(1-oxo-2,4,5,6-tetrahydro-1H-benzo[f][1,2,4]triazolo[4,3-a]azepin-4-yl)-1H-1,2,4-triazole-3-carboxamide] | 2.8 | 16.1 | 0.714 | 
11 | O=C(NC1CCc2ccccc2-n2ccnc21)c1nccc(-c2ccccc2)n1 (racemic) [Compound I-2, (±)-N-(5,6-Dihydro-4H-benzo[f]imidazo[1,2-a]azepin-4-yl)-4-phenylpyrimidine-2-carboxamide] | 6.23 | 10000 | 40.3 | 
12 | O=C(NC1CCc2ccc(N3CCC4(CCOCC4)CC3)cc2-n2ccnc21)c1n[nH]c(Cc2ccccc2)n1 (racemic) [Compound I-64, (±)-N-(9-(3-Oxa-9-azaspiro[5.5]undecan-9-yl)-5,6-dihydro-4H-benzo[f]imidazo[1,2-a]azepin-4-yl)-5-benzyl-1H-1,2,4-triazole-3-carboxamide] |  | 4.06 | 0.0077 | 0.124
13 | O=C(NC1CCc2ccccc2-n2cnnc21)c1ncn(Cc2ccccc2)n1 (racemic) [Compound I-63, (±)-1-Benzyl-N-(5,6-Dihydro-4H-benzo[f][1,2,4]triazolo[4,3-a]azepin-4-yl)-1H-1,2,4-triazole-3-carboxamide] | 0.134 | 10000 | 0.289 | 
14 | O=C(N[C@H]1CCc2ccc(N3CC4(CCOCC4)C3)cc2-n2ccnc21)c1n[nH]c(Cc2ccccc2)n1 [Compound I-86, (S)—N-(9-(7-Oxa-2-azaspiro[3.5]nonan-2-yl)-5,6-dihydro-4H-benzo[f]imidazo[1,2-a]azepin-4-yl)-5-benzyl-1H-1,2,4-triazole-3-carboxamide] | 0.067 | 3.45 | 0.0119 | 
15 | O=C(NC1COc2ccccc2-n2cccc21)c1ncn(Cc2ccccc2F)n1 (racemic) [Compound I-38, (±)-N-(6,7-Dihydrobenzo[b]pyrrolo[1,2-d][1,4]oxazepin-7-yl)-1-(2-fluorobenzyl)-1H-1,2,4-triazole-3-carboxamide] | 0.0223 | 9.79 | 0.0439 | 
16 | O=C(NC1CSc2cccn2-n2ccnc21)c1n[nH]c(Cc2ccccc2)n1 (racemic) [Compound I-45, (±)-5-Benzyl-N-(4,5-dihydroimidazo[1,2-d]pyrrolo[2,1-b][1,3,4]thiadiazepin-4-yl)-1H-1,2,4-triazole-3-carboxamide] | 0.0312 | 10.5 | 0.0364 | 
17 | O=C(N[C@H]1COc2ccccc2-n2nnnc21)c1cc(Cc2ccccc2)on1 [Compound I-8, (R)-5-Benzyl-N-(4,5-dihydrobenzo[6]tetrazolo[1,5-d][1,4]oxazepin-4-yl)isoxazole-3-carboxamide] | 0.521 | 10000 | 4.45 | 
18 | O=C(NC1CCc2ccccc2-n2ccnc21)c1cc(Oc2ccccc2)ccn1 (racemic) [Compound I-51, (±)-N-(5,6-Dihydro-4H-benzo[f]imidazo[1,2-a]azepin-4-yl)-4-phenoxypicolinamide] | 0.0492 | 17.1 | 0.125 | 
19 | O=C(NC1CCc2ccc(N3CCC4(CCOCC4)CC3)cc2-n2ccnc21)c1ncn(Cc2c(Cl)cccc2Cl)n1 (racemic) [Compound I-61, (±)-N-(9-(3-Oxa-9-azaspiro[5.5]undecan-9-yl)-5,6-dihydro-4H-benzo[f]imidazo[1,2-a]azepin-4-yl)-1-(2,6-dichlorobenzyl)-1H-1,2,4-triazole-3-carboxamide] | 0.0862 | 0.106 | 0.0181 | 
20 | O=C(NC1CCc2ccccc2-n2cnnc21)c1n[nH]c(Cc2ccccc2)n1 (racemic) [Compound I-57, (±)-5-Benzyl-N-(5,6-dihydro-4H-benzo[f][1,2,4]triazolo[4,3-a]azepin-4-yl)-1H-1,2,4-triazole-3-carboxamide] | 0.663 | 10000 | 3.65 | 
